Assay results published in the supplement of paper PMC10307832.

Each cell line was assayed with CN1CCC(CC1)OC2=CC(=C(C=C2)NC3=NC=C4C(=N3)N(C(=O)N4C)C5CCCC5)OC [AZ3146] + Nc1ncn([C@H]2C[C@H](O)[C@@H](CO)O2)c(=O)n1 [Decitabine] (partner 2 µM) (assay: relative viability (nuclei count vs DMSO), 5 days (fraction); higher = more cells survive). Conditions: first compound 0.08 µM.
How it was run: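 Relative viability divides the nuclei count in treated wells by that in vehicle wells. Lung cancer cell lines were seeded in 1536-well plates, dosed by pin tool the next day, and fixed and stained after 5 days in one step with final 0.05% Triton X-100, 1% formaldehyde and 1 ug/ml Hoechst. Dosing was a single drug or a fixed anchor-drug dose plus five library-drug doses (not always all listed) in √10 steps, and values are medians of duplicate plates imaged at 4×.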
HARA showed a relative viability of 0.493.
For LCLC-103H, the relative viability was 0.675.
Cell Line LXF-289 has a relative viability of 0.356.
NCI-H358 was tested, and the relative viability was 0.201.
For NCI-H322M, the relative viability was 0.604.
For LC-2-ad, the relative viability was 0.729.
For HCC-827, the relative viability was 0.308.
With HCC-15 the relative viability was 0.529.
HOP-62 was tested, and the relative viability was 0.22.
Cell Line NCI-H460 has a relative viability of 0.38.
NCI-H2085 showed a relative viability of 0.525.
For A-427, the relative viability was 0.511.
In the case of NCI-H838, the relative viability was 0.46.
For NCI-H1792, the relative viability was 0.399.
With NCI-H596 the relative viability was 0.91.
NCI-H3122 was tested, and the relative viability was 0.475.
With NCI-H1395 the relative viability was 0.642.
Cell Line 201T has a relative viability of 0.856.
Cell Line NCI-H1993 has a relative viability of 0.699.
NCI-H1355 gave a relative viability of 0.336.
With NCI-H2405 the relative viability was 0.733.
NCI-H1437 gave a relative viability of 0.536.
H3255 showed a relative viability of 0.604.
In the case of NCI-H2347, the relative viability was 0.588.
NCI-H1975 gave a relative viability of 0.415.

Same assay, conditions: first compound 0.253 µM
HARA was tested, and the relative viability was 0.563.
LCLC-103H gave a relative viability of 0.732.
For LXF-289, the relative viability was 0.382.
NCI-H358 showed a relative viability of 0.225.
In the case of NCI-H322M, the relative viability was 0.671.
For LC-2-ad, the relative viability was 0.783.
In the case of HCC-827, the relative viability was 0.364.
With HCC-15 the relative viability was 0.59.
HOP-62 showed a relative viability of 0.195.
Cell Line NCI-H460 has a relative viability of 0.475.
For LU99A, the relative viability was 0.848.
NCI-H2085 showed a relative viability of 0.53.
A-427 showed a relative viability of 0.529.
NCI-H838 showed a relative viability of 0.474.
For NCI-H1792, the relative viability was 0.503.
With NCI-H596 the relative viability was 0.92.
With NCI-H3122 the relative viability was 0.44.
With BEN the relative viability was 0.673.
For NCI-H1395, the relative viability was 0.746.
In the case of 201T, the relative viability was 0.858.
In the case of NCI-H1993, the relative viability was 0.54.
NCI-H1355 was tested, and the relative viability was 0.32.
NCI-H2405 was tested, and the relative viability was 0.738.
With NCI-H1437 the relative viability was 0.533.
H3255 was tested, and the relative viability was 0.805.
NCI-H2347 showed a relative viability of 0.67.
NCI-H1975 was tested, and the relative viability was 0.601.

Same assay, conditions: first compound 0.8 µM
For HARA, the relative viability was 0.481.
LCLC-103H showed a relative viability of 0.742.
With LXF-289 the relative viability was 0.403.
For NCI-H358, the relative viability was 0.182.
With NCI-H322M the relative viability was 0.727.
Work on LC-2-ad yielded a relative viability of 0.728.
HCC-827 gave a relative viability of 0.31.
In the case of HCC-15, the relative viability was 0.642.
Work on HOP-62 yielded a relative viability of 0.207.
NCI-H460 was tested, and the relative viability was 0.445.
Work on LU99A yielded a relative viability of 0.879.
Cell Line NCI-H2085 has a relative viability of 0.581.
A-427 showed a relative viability of 0.528.
NCI-H838 gave a relative viability of 0.422.
NCI-H1792 showed a relative viability of 0.54.
NCI-H596 was tested, and the relative viability was 1.2.
In the case of NCI-H3122, the relative viability was 0.42.
Work on BEN yielded a relative viability of 0.611.
201T gave a relative viability of 0.885.
NCI-H1993 gave a relative viability of 0.561.
Cell Line NCI-H1355 has a relative viability of 0.362.
Work on NCI-H2405 yielded a relative viability of 0.789.
For NCI-H1437, the relative viability was 0.598.
H3255 gave a relative viability of 0.562.
In the case of NCI-H2347, the relative viability was 0.593.
NCI-H1975 showed a relative viability of 0.367.

Same assay, conditions: first compound 2.53 µM
HARA was tested, and the relative viability was 0.487.
In the case of LCLC-103H, the relative viability was 0.741.
Cell Line LXF-289 has a relative viability of 0.432.
NCI-H358 was tested, and the relative viability was 0.207.
NCI-H322M was tested, and the relative viability was 0.698.
LC-2-ad was tested, and the relative viability was 0.781.
Cell Line HCC-827 has a relative viability of 0.3.
In the case of HCC-15, the relative viability was 0.678.
HOP-62 was tested, and the relative viability was 0.248.
For NCI-H460, the relative viability was 0.467.
For LU99A, the relative viability was 0.82.
In the case of NCI-H2085, the relative viability was 0.598.
In the case of A-427, the relative viability was 0.56.
NCI-H838 gave a relative viability of 0.501.
With NCI-H1792 the relative viability was 0.641.
In the case of NCI-H596, the relative viability was 1.3.
NCI-H3122 was tested, and the relative viability was 0.426.
In the case of BEN, the relative viability was 0.759.
For NCI-H1395, the relative viability was 0.864.
201T gave a relative viability of 0.865.
Cell Line NCI-H1993 has a relative viability of 0.588.
NCI-H1355 showed a relative viability of 0.423.
NCI-H2405 was tested, and the relative viability was 0.788.
NCI-H1437 was tested, and the relative viability was 0.531.
With H3255 the relative viability was 0.678.
NCI-H2347 gave a relative viability of 0.601.
NCI-H1975 showed a relative viability of 0.379.

Same assay, conditions: first compound 8 µM
In the case of HARA, the relative viability was 0.478.
LCLC-103H was tested, and the relative viability was 0.729.
In the case of LXF-289, the relative viability was 0.388.
Cell Line NCI-H358 has a relative viability of 0.159.
For NCI-H322M, the relative viability was 0.721.
Cell Line LC-2-ad has a relative viability of 0.716.
HCC-827 showed a relative viability of 0.347.
For HCC-15, the relative viability was 0.39.
For HOP-62, the relative viability was 0.203.
Work on NCI-H460 yielded a relative viability of 0.178.
With LU99A the relative viability was 1.02.
Work on NCI-H2085 yielded a relative viability of 0.611.
A-427 was tested, and the relative viability was 0.401.
NCI-H838 was tested, and the relative viability was 0.281.
In the case of NCI-H1792, the relative viability was 0.669.
In the case of NCI-H596, the relative viability was 1.03.
For NCI-H3122, the relative viability was 0.514.
BEN was tested, and the relative viability was 0.644.
NCI-H1395 showed a relative viability of 0.849.
For 201T, the relative viability was 0.847.
For NCI-H1993, the relative viability was 0.594.
For NCI-H1355, the relative viability was 0.361.
NCI-H2405 showed a relative viability of 0.697.
For NCI-H1437, the relative viability was 0.481.
H3255 showed a relative viability of 0.604.
NCI-H2347 was tested, and the relative viability was 0.631.
